# Source: patent US6610273B2, “Process for making chemically stable C-17/21 OH 20-ketosteroid aerosol products” (3M Innovative Properties Company, priority 1999, dated 2003)
# Key:
# [1] = assay type: physicochemical
# Method: (§1) At ambient temperature, a 3 mL ethanol solution of budesonide (0.007 M) was mixed with 0.1 g of aluminum oxide (Aldrich, neutral, activated Brockmann I, 150 mesh), which mimics aluminum oxide existing on the inner surface of aluminum containers. Each aliquot was filtered with a syringe filter and diluted with acetonitrile by 20 times for HPLC analysis to determine the recovery of budesonide with respect to the initial concentration. The recoveries of budesonide were compared with a reference, which contained the same concentration of budesonide but in ethanol solution without aluminum oxide.
# as §1, with “triamcinolone acetonide” for “budesonide”
# as §1, with “dexamethasone” for “budesonide”, “aliquote” for “aliquot”, “recoveries” for “recovery”, “inital” for “initial”
# [2] = cited from earlier work; for Chemical stability of solution MDI formulation (in words): solution formulations, HFC propellant, prior publications
# [3] = Solubility testing of budesonide in P134a and P227 formulations at approximately 5° C.; assay type: physicochemical
smiles,measurement,setting,value
CCC(=O)O[C@]1(C(=O)CO)[C@@H](C)C[C@H]2[C@@H]3CCC4=CC(=O)C=C[C@]4(C)[C@@]3(Cl)[C@@H](O)C[C@@]21C [beclomethasone 17-monopropionate],Degradation rate in ethanol/Al2O3 relative to isomer 21-BMP (17-OH),[1],about 100 times
CCC(=O)OCC(=O)[C@@]1(OC(=O)CC)[C@@H](C)C[C@H]2[C@@H]3CCC4=CC(=O)C=C[C@]4(C)[C@@]3(Cl)[C@@H](O)C[C@@]21C [beclomethasone dipropionate],Chemical stability of solution MDI formulation (in words),[2],surprisingly chemically stable
CCCC1O[C@@H]2C[C@H]3[C@@H]4CCC5=CC(=O)C=C[C@]5(C)[C@H]4[C@@H](O)C[C@]3(C)[C@]2(C(=O)CO)O1 (stereo partly drawn) [budesonide],Degradation in the presence of aluminum oxide (in words),[1],almost totally consumed
same,"Budesonide Solubility, MEAN","[3]; P134a, 5° C.",0.012 mg/g
same,"Budesonide Solubility, sample 1","[3]; P134a, 5° C.",0.013 mg/g
same,"Budesonide Solubility, sample 2","[3]; P134a, 5° C.",0.010 mg/g
same,"Budesonide Solubility, MEAN","[3]; P134a/5% EtOH, 5° C.",0.465 mg/g
same,"Budesonide Solubility, sample 1","[3]; P134a/5% EtOH, 5° C.",0.459 mg/g
same,"Budesonide Solubility, sample 2","[3]; P134a/5% EtOH, 5° C.",0.471 mg/g
same,"Budesonide Solubility, MEAN","[3]; P134a/10% EtOH, 5° C.",1.382 mg/g
same,"Budesonide Solubility, sample 1","[3]; P134a/10% EtOH, 5° C.",1.370 mg/g
same,"Budesonide Solubility, sample 2","[3]; P134a/10% EtOH, 5° C.",1.394 mg/g
same,"Budesonide Solubility, MEAN","[3]; P134a/15% EtOH, 5° C.",2.699 mg/g
same,"Budesonide Solubility, sample 1","[3]; P134a/15% EtOH, 5° C.",2.686 mg/g
same,"Budesonide Solubility, sample 2","[3]; P134a/15% EtOH, 5° C.",2.711 mg/g
same,"Budesonide Solubility, MEAN","[3]; P134a/20% EtOH, 5° C.",4.360 mg/g
same,"Budesonide Solubility, sample 1","[3]; P134a/20% EtOH, 5° C.",4.329 mg/g
same,"Budesonide Solubility, sample 2","[3]; P134a/20% EtOH, 5° C.",4.390 mg/g
same,"Budesonide Solubility, MEAN","[3]; P227, 5° C.",0.016 mg/g
same,"Budesonide Solubility, sample 1","[3]; P227, 5° C.",0.017 mg/g
same,"Budesonide Solubility, sample 2","[3]; P227, 5° C.",0.015 mg/g
same,"Budesonide Solubility, MEAN","[3]; P227/5% EtOH, 5° C.",0.657 mg/g
same,"Budesonide Solubility, sample 1","[3]; P227/5% EtOH, 5° C.",0.652 mg/g
same,"Budesonide Solubility, sample 2","[3]; P227/5% EtOH, 5° C.",0.661 mg/g
same,"Budesonide Solubility, MEAN","[3]; P227/10% EtOH, 5° C.",1.703 mg/g
same,"Budesonide Solubility, sample 1","[3]; P227/10% EtOH, 5° C.",1.698 mg/g
same,"Budesonide Solubility, sample 2","[3]; P227/10% EtOH, 5° C.",1.707 mg/g
same,"Budesonide Solubility, MEAN","[3]; P227/15% EtOH, 5° C.",2.98 mg/g
same,"Budesonide Solubility, sample 1","[3]; P227/15% EtOH, 5° C.",2.952 mg/g
same,"Budesonide Solubility, sample 2","[3]; P227/15% EtOH, 5° C.",3.008 mg/g
same,"Budesonide Solubility, MEAN","[3]; P227/20% EtOH, 5° C.",4.435 mg/g
same,"Budesonide Solubility, sample 1","[3]; P227/20% EtOH, 5° C.",4.387 mg/g
same,"Budesonide Solubility, sample 2","[3]; P227/20% EtOH, 5° C.",4.483 mg/g
CC(C)C(=O)OCC(=O)[C@@]12O[C@H](C3CCCCC3)O[C@@H]1C[C@H]1[C@@H]3CCC4=CC(=O)C=C[C@]4(C)[C@H]3[C@@H](O)C[C@@]12C [ciclesonide],Chemical stability of solution MDI formulation (in words),[2],surprisingly chemically stable
C[C@@H]1C[C@H]2[C@@H]3CCC4=CC(=O)C=C[C@]4(C)[C@@]3(F)[C@@H](O)C[C@]2(C)[C@@]1(O)C(=O)CO [dexamethasone],Degradation in the presence of aluminum oxide (in words),[1],completely degrades
CC1(C)O[C@@H]2C[C@H]3[C@@H]4CCC5=CC(=O)C=C[C@]5(C)[C@@]4(F)[C@@H](O)C[C@]3(C)[C@]2(C(=O)CO)O1 [triamcinolone acetonide],Degradation in aqueous formulations (in words),"[2]; aqueous formulations in neutral or basic solutions, WO96/40042",undergo oxidative degradation catalyzed by trace levels of metal ions
